Results on 18 compounds are retold here after patent US12371404B2, “Fused bicyclic alkylene linked imidodicarbonimidic diamides, methods for synthesis, and uses in therapy” (NovaTarg, Inc., priority 2016, dated 2025).

Structures are written as SMILES. Counter-ions that a name gives are not always drawn. Like-named read-outs stand apart in the source and are kept apart here.

One experiment addresses T1, human MATE1 (Homo sapiens, UniProt Q96FL8).
T1 sequence (Q96FL8 1-570): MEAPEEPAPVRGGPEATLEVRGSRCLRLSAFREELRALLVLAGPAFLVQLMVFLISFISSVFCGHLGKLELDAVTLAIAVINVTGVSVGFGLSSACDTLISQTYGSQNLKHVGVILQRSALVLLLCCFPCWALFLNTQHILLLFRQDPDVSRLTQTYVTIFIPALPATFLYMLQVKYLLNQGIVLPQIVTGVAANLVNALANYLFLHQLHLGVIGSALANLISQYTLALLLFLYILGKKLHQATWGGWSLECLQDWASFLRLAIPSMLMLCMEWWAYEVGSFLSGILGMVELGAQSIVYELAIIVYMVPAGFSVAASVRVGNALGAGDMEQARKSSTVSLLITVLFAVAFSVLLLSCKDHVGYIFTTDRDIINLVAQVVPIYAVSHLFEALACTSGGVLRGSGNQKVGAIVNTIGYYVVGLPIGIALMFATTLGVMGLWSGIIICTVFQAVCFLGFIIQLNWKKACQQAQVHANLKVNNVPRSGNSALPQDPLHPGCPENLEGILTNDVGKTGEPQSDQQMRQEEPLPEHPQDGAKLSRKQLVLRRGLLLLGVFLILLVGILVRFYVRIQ
The experiment can be described thus: Oxygen consumption rate (OCR) assay, HEK293 cells transfected with MATE1. The conditions noted are these: for inhibition at 1000 µM: HEK293, read-out: Oxygen Consumption Rate (OCR), MATE 1, % Inhibition at 1000 μM test concentration. The source says:
The compounds of the present invention are similarly tested in an oxygen consumption rate (OCR) assay to evaluate the functional activity of test compounds in cells.
(§1) In brief, the assay uses HEK293 cells stably transfected with the human OCT1, OCT2, OCT3, PMAT, or MATE1 transporters to determine a compound's relative transporter selectivity and its effect on the rate of oxygen consumption relative to control (Neo) cells. The MitoXpress Xtra oxygen-sensitive fluorophore is used to monitor oxygen consumption rates in the presence and absence of compound treatments. The analogs were tested at eight (8) different concentrations in triplicate to determine a relative IC50 value.
(§2) A summary description of the protocol is as follows:
(§3) Cells were incubated overnight to allow attachment. The outer columns (1 and 12) are not seeded with cells, as controls. The next day, plating medium was removed and replaced with 150 μL of assay medium (DMEM/F12 (PRF), 5% FBS, antibiotics) containing compound dilutions. A 3-fold serial dilution was prepared in the assay medium and transferred to the empty wells. The outer columns and column 11 received 150 μL of assay medium only. 10 μL of MitoXpress Xtra reagent was added to each test well, and 100 μL of pre-warmed mineral oil was overlayed in each well to create a seal. Dual read time-resolved fluorescence (BMG FluoStar Galaxy reader) was measured over 2 hours with measurements taken every 2 minutes. Excitation is 340 nm, Emission is 650 nm. For lifetime analysis, two measurements per well were taken: 1) delay of 30 μs, with a window of 30 μs; and 2) delay of 70 μs with a window of 30 μs. Background TRF values from A1-D1 were subtracted from all readings. A ratiometric analysis was performed to determine changes in the Lifetime fluorescence signal:Lifetime (μs) [T]=(D2−D1)/ln(W1/W2), where D is delay; W is fluorescence window value at each time point. Lifetime slopes were calculated using each Lifetime measurement over time. IC50 values were determined by plotting lifetime slope values vs. compound concentration.

For another experiment, the system named is control (Neo) cells. In words: Oxygen consumption rate (OCR) assay, control (Neo) HEK293 cells. The class given is cell-based. The conditions noted are these: Homo sapiens, read-out: Oxygen Consumption Rate (OCR) IC50, Neo.
Source text: (§4) Diabetologia 2011, 54 (12): 3101-3110, each incorporated by reference with regard to such testing. The compounds of the present invention are similarly tested in an oxygen consumption rate (OCR) assay to evaluate the functional activity of test compounds in cells.
as §1, §2
as §3, with “HEK293 cells transformed with human organic cation transporters were plated in collagen coated, 96-well black-walled microclear plates (Greiner-Bio 1, #655956) at 60,000 cells per well in growth medium (DMEM (LG), 10% FBS, 400 μg/ml G418). Cells” for “Cells”

The next experiment has as its target T2, human PMAT (Homo sapiens, UniProt Q7RTT9).
T2 construct: expressed in transfected cells; host or cells: HEK293
T2 sequence (Q7RTT9 1-530): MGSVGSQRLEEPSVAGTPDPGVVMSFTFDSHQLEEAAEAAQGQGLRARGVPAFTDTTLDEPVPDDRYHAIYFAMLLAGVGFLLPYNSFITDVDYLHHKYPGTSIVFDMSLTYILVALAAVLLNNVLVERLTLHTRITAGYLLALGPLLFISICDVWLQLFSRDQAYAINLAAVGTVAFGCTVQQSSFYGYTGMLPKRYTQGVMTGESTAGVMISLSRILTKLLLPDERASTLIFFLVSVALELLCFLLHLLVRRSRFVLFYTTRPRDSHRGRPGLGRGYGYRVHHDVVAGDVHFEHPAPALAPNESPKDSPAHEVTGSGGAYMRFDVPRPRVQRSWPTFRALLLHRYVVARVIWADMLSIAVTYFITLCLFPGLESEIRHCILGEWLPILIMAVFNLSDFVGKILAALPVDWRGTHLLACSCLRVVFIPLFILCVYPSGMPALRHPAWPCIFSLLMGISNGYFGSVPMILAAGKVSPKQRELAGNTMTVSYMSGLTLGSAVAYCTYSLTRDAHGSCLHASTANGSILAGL
In words: Oxygen consumption rate (OCR) assay, HEK293 cells transfected with PMAT. The experiment is classed as cell-based. The conditions noted are these: for inhibition at 10 µM: HEK293 cells with human PMAT.
Source text: as §4, §1, §2
as §3, with “HEK293 cells transformed with human organic cation transporters were plated in collagen coated, 96-well black-walled microclear plates (Greiner-Bio 1, #655956) at 60,000 cells per well in growth medium (DMEM (LG), 10% FBS, 400 μg/ml G418). Cells” for “Cells”

Setting [1] is: control (Neo) HEK293 cells, MitoXpress Xtra, 2 hours.

In the case of `CC(Cc1cn(C)c2ccc(F)cc12)NC(=N)NC(=N)N` (stereo not drawn) [Ex 6, 1-[1-(5-fluoro-1-methyl-1H-indol-3-yl)propan-2-yl]imidodicarbonimide Diamide], on human MATE1, the inhibition at 1000 µM turned out to be 18%. Moreover, the IC50 in the experiment on control (Neo) cells (setting [1]) is greater than 10 mM. For the same compound, the inhibition at 10 µM against human PMAT was found to be 8%.
For `CN(C)C(=N)NC(=N)NCCc1c[nH]c2cc(F)ccc12` [Ex 23, 3-(2-(6-fluoro-1H-indol-3-yl)ethyl)-1,1-dimethyl imidodicarbonimide diamide hydrochloride], the IC50 on human MATE1 was greater than 10000 µM; in the experiment with control (Neo) cells (setting [1]), greater than 3 mM. The inhibition at 10 µM against human PMAT worked out at 4%.
For the compound `N=C(N)NC(=N)NCCc1c[nH]c2ccc(OC(F)(F)F)cc12` [Ex 57, 1-[2-(5-trifluoromethoxy-1H-indol-3-yl)ethyl]imidodicarbonimide diamide, trifluoroacetic acid salt], the IC50 against human MATE1 was found to be 631 µM; with control (Neo) cells (setting [1]), 0.255 mM. For the same compound, the inhibition at 10 µM against human PMAT amounted to 6%.
On to `N=C(N)NC(=N)NCCc1c[nH]c2ncc(F)cc12` [Ex 43, 1-(2-(5-fluoro-1H-pyrrolo[2,3-b]pyridin-3-yl)ethyl)imidodicarbonimide diamide, trifluoroacetic acid salt], for which the IC50 at human MATE1 was 2230 µM; in the experiment on control (Neo) cells (setting [1]), 11 mM; at human PMAT (HEK293 cells stably transfected with human PMAT, MitoXpress Xtra, 2 hours, read-out: Oxygen Consumption Rate (OCR) IC50, PMAT), 23 µM.
As for `N=C(N)NC(=N)NCCc1c[nH]c2ccc([N+](=O)[O-])cc12` [Ex 18, 1-[2-(5-nitro-1H-indol-3-yl)ethyl]imidodicarbonimide diamide, trifluoroacetic acid salt], the inhibition at 1000 µM at human MATE1 was -26%. Also, the IC50 in the experiment on control (Neo) cells (setting [1]) came out at 1.41 mM. Further, the inhibition at 10 µM against human PMAT stood at 27%.
On to `N=C(N)NC(=N)NCCCc1c[nH]c2ccccc12` [Ex 7, hydrochloride], for which, on human MATE1, the inhibition at 1000 µM is 36%. Moreover, the half-inhibitory concentration (IC50) with control (Neo) cells (setting [1]) was greater than 10 mM. On human PMAT, the inhibition at 10 µM is 7%.
In the case of `N=C(N)NC(=N)NCCc1c[nH]c2c(F)c(F)c(F)c(F)c12` [Ex 42, 1-[2-(4,5,6,7-tetrafluoro-1H-indol-3-yl)ethyl]imidodicarbonimide diamide, trifluoroacetic acid salt], the half-maximal inhibitory concentration (IC50) amounted to 183 µM against human MATE1; 0.129 mM with control (Neo) cells (HEK293, 2 h); 5 µM on human PMAT.
Consider `Cc1[nH]c2cc(F)ccc2c1CCNC(=N)NC(=N)N` [Ex 31, 1-[2-(6-fluoro-2-methyl-1H-indol-3-yl)ethyl]imidodicarbonimide diamide, trifluoroacetic acid salt], for which the figures for the IC50 against human MATE1 and in the experiment with control (Neo) cells (setting [1]) were 13400 µM and 4.87 mM, respectively. On human PMAT, the inhibition at 10 µM is 35%.
With `CC(C)(CNC(=N)NC(=N)N)c1c[nH]c2ccccc12` [Ex 8], the inhibition at 1000 µM on human MATE1 was 31%. Further, the 50% inhibitory concentration (IC50) in the experiment on control (Neo) cells (setting [1]) is greater than 1 mM. The inhibition at 10 µM against human PMAT was 20%.
With `N=C(N)NC(=N)NCCc1c[nH]c2c(F)c(F)c(F)cc12` [Ex 41, 1-[2-(5,6,7-trifluoro-1H-indol-3-yl)ethyl]imidodicarbonimide diamide, trifluoroacetic acid salt], the 50% inhibitory concentration (IC50) on human MATE1 came to 675 µM; in the experiment on control (Neo) cells (HEK293, 2 h) it was 0.46 mM; against human PMAT, 6 µM.
For `Cc1ccc2c(CCNC(=N)NC(=N)N)c[nH]c2c1` [Ex 56, 1-[2-(6-methyl-1H-indol-3-yl)ethyl]imidodicarbonimide diamide, trifluoroacetate salt], the IC50 against human MATE1 is 769 µM; with control (Neo) cells (setting [1]), 0.895 mM. Also, at human PMAT, the inhibition at 10 µM amounted to 43%.
With `Cn1cc(CCNC(=N)NC(=N)N)c2cc(F)ccc21` [Ex 4, 1-[2-(5-fluoro-1-methyl-1H-indol-3-yl)ethyl]imidodicarbonimide diamide], the values for the IC50 against human MATE1 and in the experiment with control (Neo) cells (setting [1]) were 1570 µM and 0.678 mM, respectively. At human PMAT, the inhibition at 10 µM came out at 41%.
With `CN(C)C(=N)NC(=N)NCCc1c[nH]c2ccc(C(F)(F)F)cc12` [Ex 32, 3-(2-(5-trifluoromethyl-1H-indol-3-yl)ethyl)-1,1-dimethyl imidodicarbonimide diamide hydrochloride], the IC50 against human MATE1 stood at 681 µM; in the experiment on control (Neo) cells (setting [1]), 0.397 mM. For the same compound, the inhibition at 10 µM at human PMAT stood at 10%.
In the same order, the values of `N=C(N)NC(=N)NCCc1c[nH]c2ccc(Cl)cc12` [Ex 9, 1-[2-(5-chloro-1H-indol-3-yl)ethyl]imidodicarbonimide diamide, trifluoroacetic acid salt] are 171 µM, 0.07 mM and 53%.
`CC(Cc1c[nH]c2ccc(F)cc12)NC(=N)NC(=N)N` (stereo not drawn) [Ex 5, 1-[1-(5-fluoro-1H-indol-3-yl)propan-2-yl]imidodicarbonimide diamide]: the inhibition at 1000 µM on human MATE1 came to 65%. The IC50 in the experiment on control (Neo) cells (setting [1]) was 1.88 mM. Besides, the inhibition at 10 µM on human PMAT turned out to be 12%.
Regarding `Cc1cccc2c(CCNC(=N)NC(=N)N)c[nH]c12` [Ex 59, 1-[2-(7-methyl-1H-indol-3-yl)ethyl]imidodicarbonimide diamide, trifluoroacetic acid salt], the values for the IC50 against human MATE1 and with control (Neo) cells (setting [1]) were 112 µM and 1.29 mM, respectively. For the same compound, the inhibition at 10 µM on human PMAT came to 47%.
In the same order, the values of `N=C(N)NC(=N)NCc1c[nH]c2ccccc12` [Ex 55, 1-[(1H-indol-3-yl)methyl]imidodicarbonimide diamide, trifluoroacetic acid salt] are 1650 µM, 1.4 mM and 10%.
Take `N=C(N)NC(=N)NCCc1c[nH]c2ccccc12` [Ex 17, 1-[2-(1H-indol-3-yl)ethyl]imidodicarbonimide diamide hydrochloride]: the IC50 against human MATE1 is 4840 µM; with control (Neo) cells (setting [1]), greater than 5 mM. Besides, the inhibition at 10 µM against human PMAT is 54%.
